According to EP2319515A1, “COCCIDICIDE COMBINATION FOR VETERINARY USE” (Laboratorio Avi-Mex, S.A. De C.V., priority 2008, dated 2010):

Test system: Eimeria tenella sporocytes
Test: in vitro comparative trials for effectiveness: chicken fibroblasts infected with E. tenella sporocytes
Format: cell-based
Conditions: 24 hours of incubation; for cells quantified in 9 fields, X (±SD): CS-3 chicken fibroblasts + E. tenella sporocytes (about 3 per cell), microscope 40 X; for cells quantified in 9 fields, Means mean (±SD): mean of replications A to C, CS-3 chicken fibroblasts + E. tenella sporocytes

| SMILES | cells quantified in 9 fields, X (±SD) (Replication A) | cells quantified in 9 fields, X (±SD) (Replication B) | cells quantified in 9 fields, X (±SD) (Replication C) | cells quantified in 9 fields, Means mean (±SD) |
| --- | --- | --- | --- | --- |
| CO[C@@H]1[C@@H](OC)[C@H](C)[C@@](O)(CC(=O)O)O[C@H]1[C@H](C)[C@H]1O[C@@]2(CC[C@@](C)([C@H]3CC[C@@](C)([C@@H]4O[C@@H]([C@H]5O[C@](C)(O)[C@H](C)C[C@@H]5C)C[C@@H]4O[C@@H]4C[C@H](OC)[C@@H](OC)[C@H](C)O4)O3)O2)C[C@H](O)[C@H]1C [Example 1, Maduramicine] | 268 (29) | 156 (35) | 239 (21) | 221 (58) |
| Cc1cc(-n2c(=O)[nH]c(=O)n(C)c2=O)ccc1Oc1ccc(SC(F)(F)F)cc1 [Example 2] | 999 (12) | 899 (8) | 789 (6) | 895 (105) |
